Measurements reported in patent US11485728B2, “Small molecules for the treatment of autoimmune diseases and cancer” (Athos Therapeutics, Inc., priority 2020, dated 2022).

Experiments:
PAMPA permeability = conditions: 5 hours at RT; for Papp at 5 h, 20 μM: PAMPA
[1] = system: CaCo-2 intestinal epithelial cells; assay: Transepithelial resistance (TEER) of CaCo-2 cells exposed to TNFα and IFNγ; type: cell-based; conditions: CaCo-2; TNFα along with compounds
Description: The intestinal epithelial barrier plays a central role in the pathophysiology of multiple chronic inflammatory and autoimmune diseases. Intestinal epithelial cells provide a physical barrier that interacts with immune cells and protects internal cavities from mucosal bacterial and antigen intrusion. Intestinal inflammation during IBD is associated with disruption of this barrier and cytokines like TNFα play important roles.
At confluence TEER is measured and TNFα along with compounds are added as described above. Compound-induced TEER is determined after correction with measurement prior to treatment.

[2] = system: C57BL/6 mice with DSS colitis; assay: DSS colitis in C57BL/6 mice; type: in vivo; conditions: 25 mg/kg PO daily; day twelve
Description: Dextran sodium sulfate (DSS) was added to the water 24 hrs after compound administration and weight was measured daily.
C57BL/6 mice (20-22 grams) were fed ad lib and assigned to 4 different groups (n=8/group). […] A control group received vehicle alone. After 24 hrs, mice were weighed and DSS was added to their drinking water. Mice were then treated with the test compounds and weighed daily and the DSS water was replenished every 72 hrs for 5 days, at which point, it was replaced by regular drinking water. Mice were sacrificed on day twelve and clinical scored was assessed. Intestinal tissue for and blood were also collected. Tissues were either flash frozen and kept in −80° C. for RNA and protein isolation or placed in 10% formalin solution for future histological analysis. Blood was spun at 5K rpm for 5 min and serum was collected and kept at −20° C. for multiplex cytokine analysis.
DSS colitis mouse model: C57BL/6 mice (20-22 grains) are fed ad lib and assigned to different groups (n=8/group). […] A control group receives vehicle alone. After 24 h, mice are weighed and DSS is added to their drinking water. Mice are then treated with the test compounds and weighed daily and the DSS water is replenished every 72 liars for 5 days, at which point, it is replaced by regular drinking water. Mice are sacrificed on day twelve and clinical scored was assessed. Intestinal tissue for and blood are also collected. Tissues are either flash frozen and kept in −80° C. for RNA and protein isolation or placed in 10% formalin solution for future histological analysis.

[3] = PAMPA permeability Classification, 20 μM donor
[4] = Permeability, Pe, 20 μM donor in PBS/MeOH 90:10

Molecule	Permeability, Pe (PAMPA permeability; 20 μM donor in PBS/MeOH 90:10)	TEER [1]	DSS Efficacy [2]	Papp at 5 h, 20 μM (PAMPA permeability; [3])	Papp at 5 h, 20 μM (PAMPA permeability; [4])
4-(4-((1-cyclopropylpiperidin-4-yl)amino)-6-methoxy-7-(3-(pyrrolidin-1-yl)propoxy)quinazolin-2-yl)thiomorpholine 1,1-dioxide [Compound 405, reference compound]	0.101 ×10⁻⁶ cm/s				
COc1cc2c(N[C@@H]3CCCOC3)nc(N3CCC(F)(F)CC3)nc2cc1OCCCN1CCCC1 [Compound 12, (R)-2-(4,4-difluoropiperidin-1-yl)-6-methoxy-7-(3-(pyrrolidin-1-yl)propoxy)-N-(tetrahydro-2H-pyran-3-yl)quinazolin-4-amine]		++	++		
COc1cc2c(NC3CCCOC3)nc(N3CCC(F)(F)CC3)nc2cc1OCCCN1CCCC1 (centres unmarked) [Compound 14, 2-(4,4-difluoropiperidin-1-yl)-6-methoxy-7-(3-(pyrrolidin-1-yl)propoxy)-N-(tetrahydro-2H-pyran-3-yl)quinazolin-4-amine]		+	++		
COc1cc2c(NC3CCCS(=O)(=O)C3)nc(N3CCC(F)(F)CC3)nc2cc1OCCCN1CCCC1 (centres unmarked) [Compound 15, 3-((2-(4,4-difluoropiperidin-1-yl)-6-methoxy-7-(3-(pyrrolidin-1-yl)propoxy)quinazolin-4-yl)amino)tetrahydro-2H-thiopyran 1,1-dioxide]		++	+		
COc1cc2c(NCN3CCOCC3)nc(N3CCC(F)(F)CC3)nc2cc1OCCCN1CCCC1 [Compound 17, 2-(4,4-difluoropiperidin-1-yl)-6-methoxy-N-(morpholinomethyl)-7-(3-(pyrrolidin-1-yl)propoxy)quinazolin-4-amine]		+	+		
COc1cc2c(NCCCOC(C)C)nc(N3CCC(F)(F)CC3)nc2cc1OCCCN1CCCC1 [Compound 21, 2-(4,4-difluoropiperidin-1-yl)-N-(3-isopropoxypropyl)-6-methoxy-7-(3-(pyrrolidin-1-yl)propoxy)quinazolin-4-amine]		−	+		
COc1cc2c(N[C@]3(N(C)C)C[C@@H](C)O[C@@H](C)C3)nc(N3CCC(F)(F)CC3)nc2cc1OCCCN1CCCC1 [Compound 25, (2R,4r,6S)—N-(2-(4,4-difluoropiperidin-1-yl)-6-methoxy-7-(3-(pyrrolidin-1-yl)propoxy)quinazolin-4-yl)-N′,N′,2,6-tetramethyltetrahydro-4H-pyran-4,4-diamine]		+	+		
COc1cc2c(Nc3ccccn3)nc(N3CCC(F)(F)CC3)nc2cc1OCCCN1CCCC1 [Compound 34, 2-(4,4-difluoropiperidin-1-yl)-6-methoxy-N-(pyridin-2-yl)-7-(3-(pyrrolidin-1-yl)propoxy)quinazolin-4-amine]		−	−		
COc1cc2c(NCC#N)nc(N3CCC(F)(F)CC3)nc2cc1OCCCN1CCCC1 [Compound 49, 2-((2-(4,4-difluoropiperidin-1-yl)-6-methoxy-7-(3-(pyrrolidin-1-yl)propoxy)quinazolin-4-yl)amino)acetonitrile]		−	−		
COc1cc2c(NCO)nc(N3CCC(F)(F)CC3)nc2cc1OCCCN1CCCC1 [Compound 61, ((2-(4,4-difluoropiperidin-1-yl)-6-methoxy-7-(3-(pyrrolidin-1-yl)propoxy)quinazolin-4-yl)amino)methanol]		+	+		
COc1cc2c(NC3CCS(=O)(=O)CC3)nc(N3CCC3)nc2cc1OCCCN1CCCC1 [Compound 81, 4-((2-(azetidin-1-yl)-6-methoxy-7-(3-(pyrrolidin-1-yl)propoxy)quinazolin-4-yl)amino)tetrahydro-2H-thiopyran 1,1-dioxide]		+	++		
COc1cc2c(NC3CCS(=O)(=O)CC3)nc(C3CC3)nc2cc1OCCCN1CCCC1 [Compound 99, 4-((2-cyclopropyl-6-methoxy-7-(3-(pyrrolidin-1-yl)propoxy)quinazolin-4-yl)amino)tetrahydro-2H-thiopyran 1,1-dioxide]		++	++		
COc1cc2c(NC3CCS(=O)(=O)CC3)nc(SC(C)C)nc2cc1OCCCN1CCCC1 [Compound 105]		+	+		
COc1cc2c(NC3CCCS(=O)(=O)C3)nc(N3CCC3)nc2cc1OCCCN(C)C (centres unmarked) [Compound 137]		+	+		
COc1cc2c(NC3CCOCC3)nc(N3CCCCC3)nc2cc1OCCCN1CCCC1 [Compound 173, 6-methoxy-2-(piperidin-1-yl)-7-(3-(pyrrolidin-1-yl)propoxy)-N-(tetrahydro-2H-pyran-4-yl)quinazolin-4-amine]		++	++		
COc1cc2c(NC3CCOCC3)nc(-c3ccc(C)o3)nc2cc1OCCCN1CCCC1 [Compound 180, 6-methoxy-2-(5-methylfuran-2-yl)-7-(3-(pyrrolidin-1-yl)propoxy)-N-(tetrahydro-2H-pyran-4-yl)quinazolin-4-amine]		++	++		
COc1cc2c(NCN3CCNCC3)nc(-c3cnc(C)s3)nc2cc1OCCCN1CCCC1 [Compound 213]		+	+		
COc1cc2c(NC3CCOCC3)nc(N3CCCC3)nc2cc1C#CCN1CCCC1 [Compound 250]		++	++		
COc1cc2c(NC3CCS(=O)(=O)CC3)nc(N3CCCC3)nc2cc1C#CCN1CCCC1 [Compound 254]		+	+		
COc1cc2c(NC3CCN(C(C)C)CC3)nc(N3CCCN(C)CC3)nc2cc1OCCCN1CCCCC1 [Compound 403, reference compound]				< 0.055 ×10⁻⁶ cm/s	0.0096 ×10⁻⁶ cm/s
COc1cc2c(NC3CCN(C(C)C)CC3)nc(N3CCOCC3)nc2cc1OCCCN1CCCC1 [Compound 404, reference compound]				< 0.055 ×10⁻⁶ cm/s	0.00624 ×10⁻⁶ cm/s
